Experimental findings from US5773236A, “Assay for glutathiane transferase using polyhaloaryl-substituted reporter molecules” (Molecule Probes, Inc., priority 1997, dated 1998) are described below.

Structures are written as SMILES. Where a name gives a salt, the structure may show the parent alone.

One assay relates to glutathione S-transferase. Put plainly: Other derivatives tested as GSH/GST substrates, TLC (Example 54). Conditions: 0.2-0.5 mM compound in 50 mM MOPS, pH 7.5, TLC. Type of assay: biochemical. On the procedure:
The reaction is then stopped by adding 10% H2 O2.
The PHA compound (ethanol stock solution, 2 mM) and reduced glutathione (phosphate buffer stock solution, 5 mM) are incubated under the same conditions as described above without addition of glutathione S-transferase.
Commercial precast silica gel TLC plates are used to follow both the enzymatic reaction and the blank control reaction. […] UV absorbance by the PHA substituent always permits detection of both the compound and any glutathione adduct by fluorescence quenching when the TLC sheet is illuminated with 254-nm radiation. Fluorescent compounds can be directly detected using appropriate UV or visible illumination. […] Furthermore, the intensity of the signal on the TLC sheet often can be enhanced by methods well known in the art, such as by application of a phosphomolybdate spray, iodine vapors or a similar detection reagent. Radioactive products can be directly detected and quantitated by exposure to a suitable film using methods well known in the art.
Consider `CN(C)c1ccc2c(CC(=O)NCCNC(=O)c3c(F)c(F)c(F)c(F)c3F)cc(=O)oc2c1` [Compound 40, 7-dimethylamino-4-(((((2-(pentafluorobenzoyl)amino)ethyl)amino)carbonyl)methyl)coumarin], for which the glutathione adducts detected result was “detectable glutathione adducts”.
Same read-out and setting: as for `O=C(c1c(F)c(F)c(F)c(F)c1F)N1CCN(C(=O)c2c3oc4cc(O[C@@H]5O[C@H](CO)[C@H](O)[C@H](O)[C@H]5O)c(Cl)cc4nc-3ccc2=O)CC1` [Compound 22, 8-chloro-3,7-dihydroxy-4-(4-pentafluorobenzoyl-1-piperazinecarbonyl)phenoxazine β-D-galactopyranoside], the entry is “detectable glutathione adducts”.
The same measure, in the same setting: with `O=C1OC2(c3ccc(O)cc3Oc3cc(O)ccc32)c2ccc(NC(=O)c3c(F)c(F)c(F)c(F)c3C(=O)O)cc21` [Compound 27, 5-(2'-carboxy-3',4',5',6'-tetrafluorobenzoylamino)fluorescein] the entry was “detectable glutathione adducts”.
The same measure, in the same setting: with `O=c1[nH][nH]c(=O)c2c(F)c(F)c(F)c(F)c12` [Compound 43, tetrafluorophthalhydrazide] the entry was “detectable glutathione adducts”.
Turning to `O=C(Nc1ccc2c(c1)C(=O)OC21c2ccc(O)cc2Oc2cc(O)ccc21)c1cc(F)c(F)c(F)c1` [Compound 26, 5-(3',4',5'-trifluorobenzoylamino)fluorescein], the glutathione adducts detected result was “detectable glutathione adducts”.
The same measure, in the same setting: with `O=C(c1c(F)c(F)c(F)c(F)c1F)c1cc2ccc(O)cc2oc1=O` [7-hydroxy-3-(pentafluorobenzoyl)coumarin] the entry was “detectable glutathione adducts”; with `NCCNC(=O)c1c(F)c(F)c(F)c(F)c1F` [Compound 31, ((2-(pentafluorobenzoyl)amino)ethyl)ammonium trifluoroacetate], “detectable glutathione adducts”; with `O=C(c1c(F)c(F)c(F)c(F)c1F)c1cc2cc(F)c(O)c(F)c2oc1=O` [Compound 42, 6,8-difluoro-7-hydroxy-3-pentafluorobenzoylcoumarin], “detectable glutathione adducts”.
As to `O=C1OC2(c3ccc(O)cc3Oc3cc(O)ccc32)c2ccc(N3C(=O)c4c(F)c(F)c(F)c(F)c4C3=O)cc21` [Compound 28, 5-tetrafluorophthalimidylfluorescein], the glutathione adducts detected entry is on record as “detectable glutathione adducts”.
On the same count and under the same terms, as for `O=c1oc2cc(O)ccc2cc1-c1c(F)c(F)c(F)c(F)c1F` [Compound 41, 7-hydroxy-3-pentafluorophenylcoumarin], the entry is “detectable glutathione adducts”; as for `O=C(c1c(F)c(F)c(F)c(F)c1F)N1CCN(C(=O)c2c3oc4cc(O)c(Cl)cc4nc-3ccc2=O)CC1` [Compound 17], “detectable glutathione adducts”; as for `CN(C)c1ccc2c(c1)Oc1cc(N(C)C)ccc1C21OC(=O)c2cc(NC(=O)c3c(F)c(F)c(F)c(F)c3F)ccc21` [Compound 25, 5-(pentafluorobenzoylamino)tetramethylrhodamine], “detectable glutathione adducts”.
For the compound `O=c1cc(-c2c(F)c(F)c(F)c(F)c2F)c2ccc(O)cc2o1` [Compound 44, 7-hydroxy-4-pentafluorophenylcoumarin], the glutathione adducts detected entry is given as “detectable glutathione adducts”.
The same measure, in the same setting: with `CCN(CC)c1ccc2c(CNC(=O)c3c(F)c(F)c(F)c(F)c3F)cc(=O)oc2c1` [Compound 29, 7-diethylamino-4-(((Pentafluorobenzoyl)amino)methyl)coumarin] the entry was “detectable glutathione adducts”; with `O=C(NCCNC(=O)c1cc2ccc(O)cc2oc1=O)c1c(F)c(F)c(F)c(F)c1F` [Compound 32, 7-hydroxy-3-((((2-(pentafluorobenzoyl)amino)ethyl)amino)carbonyl)coumarin], “detectable glutathione adducts”.
Still for that read-out and setting: as for `Cc1cc(C)n2c1C=C1C=CC(CCC(=O)NCCNC(=O)c3c(F)c(F)c(F)c(F)c3F)=[N+]1[B-]2(F)F` [Compound 30], the entry is “detectable glutathione adducts”.

In the next assay the test system is Bovine pulmonary aorta endothelial cells (BPAEC). Put plainly: Glutathione adduct formation and fate of substrate in cultured animal cells, HPLC (Example 66). The conditions noted are these: BPAEC, up to 4 hours. Format: cell-based. The method, then:
The solutions are mixed overnight with three volumes of ethyl acetate followed by centrifugation at 15,000×g for 30 min to separate the organic and aqueous layers. HPLC analysis using a Rainin HPLC equipped with a C18, 5 μm, 100 Å, 4.6×250 mm MICROSORB-MV reverse phase column. […] Products are detected by reading the absorbance at 500 nm.
Bovine pulmonary aorta endothelial cells (BPAEC) are removed from flasks by trypsinization and washed into fresh complete growth medium to yield 10^6 cells/mL. […] Other aliquots of the cell suspension are loaded with the same substrates for 1 hour, rinsed into fresh complete medium, then incubated in the absence of substrate for an additional 3 hr at 37° C. to look for retention and efflux of fluorescent products. At the end of each incubation period the cells are removed by centrifugation and the supernate is retained. The cell pellets are resuspended in 1 mL of E-Pure water and subjected to three freeze-thaw cycles (-80° C. to 37° C.).
For the compound `N[C@@H](CCC(=O)N[C@@H](CSc1c(F)c(F)c(C(=O)Nc2ccc3c(c2)C(=O)OC32c3ccc(O)cc3Oc3cc(O)ccc32)c(F)c1F)C(=O)NCC(=O)O)C(=O)O` [Compound 45, 5-(4'-(S-glutathionyl))-(2',3', 5',6'-tetrafluorobenzoylamino)fluorescein], the “retention of GSH adduct / fluorescence labeling in cells” value is “rapidly removed from the cytoplasm of these BPAEC cells but a fraction of the fluorescence labeling is retained, even after 4 hours”.

The subject of the next assay is 3T3 or BPAE cells. The assay can be described thus: Intracellular products of tracers by gel electrophoresis (Example 67). Format: cell-based. The conditions noted are these: 5 μM, 1 hr, 37° C. The method, then: (§1) Cultures of either 3T3 or BPAE cells are treated with 5 μM solutions of either Compound 4,5-(pentachlorobenzoylamino)fluorescein diacetate, 5-pentafluorobenzenesulfonylamino)fluorescein diacetate, or 5-chloromethylfluorescein diacetate (CMFDA, Molecular Probes, Inc.) for 1 hr at 37° C. The cells are spun, resuspended in distilled water and lysed by repeated freezing and thawing. 20 μL of the cell lysate supernatant is diluted with 30 μL of SDS-PAGE sample buffer, containing β-mercaptoethanol. The cell pellets are dispersed in 50 μL of water. 20 μL of each sample is added to 30 μL of the same sample buffer. The samples are heated at 95° C. for 5 min. and loaded on 4-20% polyacrylamide gradient minigels. At the completion of the run the gels are observed with UV excitation.
As to `CC(=O)Oc1ccc2c(c1)Oc1cc(OC(C)=O)ccc1C21OC(=O)c2cc(NS(=O)(=O)c3c(F)c(F)c(F)c(F)c3F)ccc21` [5-pentafluorobenzenesulfonylamino)fluorescein diacetate], the “fluorescent bands on gel (region of the tracking dye)” value is “Two closely spaced green fluorescent bands” and the “protein adduct bands on gel” value is recorded as “No other band corresponding to proteins is visible”.
The matching figures for `CC(=O)Oc1ccc2c(c1)Oc1cc(OC(C)=O)ccc1C21OC(=O)c2cc(NC(=O)c3c(Cl)c(Cl)c(Cl)c(Cl)c3Cl)ccc21` [5-(pentachlorobenzoylamino)fluorescein diacetate]: “a single band in the region of the tracking dye” and “do not shown a protein adduct”.
For the compound `CC(=O)Oc1ccc2c(c1)Oc1cc(OC(C)=O)ccc1C21OC(=O)c2cc(CCl)ccc21` [CMFDA, 5-chloromethylfluorescein diacetate, reference compound], the “protein adduct bands on gel” value is given as “multiple fluorescent bands”.

A further assay deals with 3T3 or BPAE cells. Put plainly: Intracellular products of tracers by TLC and HPLC (Example 67). Format: cell-based. The conditions noted are these: 5 μM, 1 hr, 37° C., HPLC. The method, then:
Reaction mixtures with and without GST using Compound 1 as the substrate, are prepared as described in Example 48. The solutions are mixed overnight with three volumes of ethyl acetate followed by centrifugation at 15,000×g for 30 min to separate the organic and aqueous layers. HPLC analysis using a Rainin HPLC equipped with a C18, 5 μm, 100 Å, 4.6×250 mm MICROSORB-MV reverse phase column. Products are separated in 30 min with a gradient of 5% to 95% solvent B in Solvent A at a flow rate of 1 mL/min, where solvent A is 0.1M triethylammonium acetate, pH 7.0, and solvent B is acetonitrile (see FIG. 1). Products are detected by reading the absorbance at 500 nm. Peaks are identified and, if desired, quantitated by comparing retention times with authentic samples of the glutathione adduct of Compound 45 (Example 45).
as §1
Alternatively, the above samples are analyzed by TLC and by HPLC, as described in Examples 48 and 52. […] Coinjection with authentic Compound 1 confirms the identity of the substrate peak and coinjection with the authentic Compound 1-GSH adduct (Example 45) confirms the identify of the other fluorescent product.
For `CC(=O)Oc1ccc2c(c1)Oc1cc(OC(C)=O)ccc1C21OC(=O)c2cc(CCl)ccc21` [CMFDA, 5-chloromethylfluorescein diacetate, reference compound], the “products by HPLC” value was “the glutathione adduct and additional small peaks”.

Staying with this assay, now noted: 5 μM, 1 hr, 37° C., TLC.
For `CC(=O)Oc1ccc2c(c1)Oc1cc(OC(C)=O)ccc1C21OC(=O)c2cc(NS(=O)(=O)c3c(F)c(F)c(F)c(F)c3F)ccc21` [5-pentafluorobenzenesulfonylamino)fluorescein diacetate], the “products by TLC” value was “formation of a GSH adduct”.
Still for that read-out and setting: as for `CC(=O)Oc1ccc2c(c1)Oc1cc(OC(C)=O)ccc1C21OC(=O)c2cc(NC(=O)c3c(Cl)c(Cl)c(Cl)c(Cl)c3Cl)ccc21` [5-(pentachlorobenzoylamino)fluorescein diacetate], the entry is “Only a single, fast-moving fluorescent band corresponding to authentic 5-(pentachlorobenzoylamino)fluorescein”; as for `CC(=O)Oc1ccc2c(c1)Oc1cc(OC(C)=O)ccc1C21OC(=O)c2cc(CCl)ccc21` [CMFDA, 5-chloromethylfluorescein diacetate, reference compound], “multiple TLC bands”.
